Where a name gives a salt, the structure may show the parent alone.
What was measured:
[1] = test system: white mice; experiment: Acute toxicity, single oral dose; assay type: in vivo; conditions: white mice, 14 days observation
Description: (§1) The acute toxicity of the substances tested was determined in white mice after oral adminstration of a single dose (observation time: 14 days).

[2] = Acute toxicity, single oral dose; assay type: in vivo; conditions: mouse, in vivo, po; read-out: Acute toxicity mg/kg p.o.
Description: as §1

[3] = test system: cats; experiment: Determination of the hypotensive and positive inotropic activity in the cat; assay type: in vivo; conditions: for change in vivo at 0.5 mg/kg / change in vivo at 2 mg/kg / change in vivo at 0.1 mg/kg: Felis catus, iv, read-out: Change of dp/dt in %
Description: TEST 2. DETERMINATION OF THE HYPOTENSIVE AND POSITIVE INOTROPIC ACTIVITY IN THE CAT
The tests were performed in cats which were anesthetized with pentobarbital sodium (40 mg/kg i.p.). The animals breathed spontaneously. The arterial blood pressure was measured in the aorta abdominalis by a Statham pressure transducer (P 23 Dc). The positive inotropic effect was determined by measuring the pressure in the left […] by means of a catheter tipmanometer (Millar PC 350 A). This contractility parameter dp/dtmax was registered by means of an analog differentiating circuit. The substances under test were injected into a vena femoralis. Physiological sodium […] solution or polydiol 200 was used as solvent.

[4] = test system: thrombocyte aggregation; experiment: Determination of the thrombocyte aggregation according to Born and Cross (collagen-provoked, platelet-rich plasma); assay type: cell-based, healthy test persons; conditions: collagen-induced aggregation
Description: TEST 1. DETERMINATION OF THE THROMBOCYTE AGGREGATION ACCORDING TO BORN AND CROSS [J. PHYSIOL. 170, 397 (1964)].
The thrombocyte aggregation was measured in platelet-rich plasma of healthy test persons. The decrease of the optical density was photometrically measured and recorded after addition of commercial collagen (Sigma, St. Louis, Mo., USA) which contained […] of collagen-fibrils per ml. The velocity of aggregation (Vmax) was determined by the angle of inclination of the density curve. The point of the curve, where the most light was transmitted, served for the determination of the optical density (o.d.). To provoke maximum aggregation, approximately 0.01 ml of the collagen solution was added to 1 ml of platelet-rich plasma.

[5] = 0.5 mg/kg i.v., initial phase before decrease

SMILES | Change of blood pressure, second value of the pair (after the slash) ([3]; 0.5 mg/kg i.v.) | Duration of action ([3]; 0.5 mg/kg i.v.) | change in vivo at 0.5 mg/kg ([3]; 0.5 mg/kg i.v.) | Change of blood pressure, first value of the pair (before the slash) ([3]; 0.5 mg/kg i.v.) | other results
Cc1nc2cc(C3=NNC(=O)C(C)C3)ccc2[nH]1 (centres unmarked) [N, 2-Methyl-5(6)-(4-methyl-3-oxo-4,5-dihydro-2H-6-pyridazinyl)-benzimidazole, reference compound] | 3 mgm Hg | 22 min | 23% |  | animals died ([1]; 250 mg/kg p.o.): 0 out of 10; LD50 at 336 h [2]: > 250 mg/kg; EC50 [4]: 1000 nM
Cc1ccc(-c2nc3cc(C4=NNC(=O)CC4C)ccc3[nH]2)cc1 (centres unmarked) [H, 2-(4-Methyl-phenyl)-5(6)-(5-methyl-3-oxo-4,5-dihydro-2H-6-pyridazinyl)-benzimidazole] | -10 mgm Hg | > 69 min | 118% | -10 mgm Hg | animals died ([1]; 600 mg/kg p.o.): 0 out of 6; LD50 at 336 h [2]: > 600 mg/kg; duration of decrease of blood pressure ([3]; 0.5 mg/kg i.v., decrease after 1 minute): > 50 min; initial increase of blood pressure, first value of the pair [3, 5]: 33 mgm Hg; initial increase of blood pressure, second value of the pair [3, 5]: 18 mgm Hg
CC1CC(=O)NN=C1c1ccc2[nH]cnc2c1 (centres unmarked) [C, 5(6)-(5-Methyl-3-oxo-4,5-dihydro-2H-6-pyridazinyl)-benzimidazole] | -48 mgm Hg | > 172 min | 159% | -55 mgm Hg | EC50 [4]: 120 nM
Cc1nc2cc(C3=NNC(=O)CC3C)ccc2n1CCC(C)C (centres unmarked) [L, 1-(3-Methyl-butyl)-2-methyl-5-(5-methyl-3-oxo-4,5-dihydro-2H-6-pyridazinyl)-benzimidazole] |  |  |  |  | EC50 [4]: 50 nM
COc1ccc(-c2nc3cc(C4=NNC(=O)CC4C)ccc3n2C)cc1 (centres unmarked) [K, 1-Methyl-2-(4-methoxy-phenyl)-5-(5-methyl-3-oxo-4,5-dihydro-2H-6-pyridazinyl)-benzimidazole] | -34 mgm Hg | > 40 min | 50% | -28 mgm Hg | 
CC1CC(=O)NN=C1c1ccc2[nH]c(-c3ccccc3F)nc2c1 (centres unmarked) [D, 2-(2-Fluoro-phenyl)-5(6)-(5-methyl-3-oxo-4,5-dihydro-2H-6-pyridazinyl)-benzimidazole] | -10 mgm Hg | > 69 min | 107% |  | animals died ([1]; 600 mg/kg p.o.): 0 out of 6; LD50 at 336 h [2]: > 600 mg/kg
COc1ccc(-c2nc3cc(C4=NNC(=O)C(C)C4)ccc3[nH]2)c(OC)c1 (centres unmarked) [O, 2-(2,4-Dimethoxy-phenyl)-5(6)-(4-methyl-3-oxo-4,5-dihydro-2H-6-pyridazinyl)-benzimidazole, reference compound] | 6 mgm Hg | 2 min | 10% | +15 mgm Hg | 
COc1ccc(-c2nc3cc(C4=NNC(=O)C(C)C4)ccc3[nH]2)cc1 (centres unmarked) [P, 2-(4-Methoxy-phenyl)-5(6)-(4-methyl-3-oxo-4,5-dihydro-2H-6-pyridazinyl)-benzimidazole, reference compound] | -10 mgm Hg | 1 min | 9% | -10 mgm Hg | Change of blood pressure, first value of the pair (before the slash) ([3]; 2.0 mg/kg i.v.): -35 mgm Hg; Change of blood pressure, second value of the pair (after the slash) ([3]; 2.0 mg/kg i.v.): -35 mgm Hg; Duration of action ([3]; 2.0 mg/kg i.v.): 1 min; change in vivo at 2 mg/kg ([3]; 2.0 mg/kg i.v.): 5%
COc1ccc(-c2nc3cc(C4=NN(C)C(=O)C(C)C4)ccc3[nH]2)cc1 (centres unmarked) [Q, 2-(4-Methoxy-phenyl)-5(6)-(2,4-dimethyl-3-oxo-4,5-dihydro-2H-6-pyridazinyl)-benzimidazole, reference compound] | -12 mgm Hg | 11 min | -16% | -12 mgm Hg | Change of blood pressure, first value of the pair (before the slash) ([3]; 2.0 mg/kg i.v.): -40 mgm Hg; Duration of action ([3]; 2.0 mg/kg i.v.): 3 min; change in vivo at 2 mg/kg ([3]; 2.0 mg/kg i.v.): -26%
CCCC(C)c1nc2cc(C3=NNC(=O)CC3C)ccc2[nH]1 (centres unmarked) [I, 2-(2-Pentyl)-5(6)-(5-methyl-3-oxo-4,5-dihydro-2H-6-pyridazinyl)-benzimidazole hydrochloride] | -33 mgm Hg | > 52 min | 103% | -28 mgm Hg | Change of blood pressure, first value of the pair (before the slash) ([3]; 0.1 mg/kg i.v.): -10 mgm Hg; Change of blood pressure, second value of the pair (after the slash) ([3]; 0.1 mg/kg i.v.): -13 mgm Hg; Duration of action ([3]; 0.1 mg/kg i.v.): > 53 min; change in vivo at 0.1 mg/kg ([3]; 0.1 mg/kg i.v.): 83%
CSc1nc2cc(C3=NNC(=O)CC3C)ccc2[nH]1 (centres unmarked) [F, 2-Methylmercapto-5(6)-(5-methyl-3-oxo-4,5-dihydro-2H-6-pyridazinyl)-benzimidazole] | -66 mgm Hg | > 32 min | 50% | -48 mgm Hg | Change of blood pressure, first value of the pair (before the slash) ([3]; 0.1 mg/kg i.v.): -36 mgm Hg; Change of blood pressure, second value of the pair (after the slash) ([3]; 0.1 mg/kg i.v.): -40 mgm Hg; Duration of action ([3]; 0.1 mg/kg i.v.): > 28 min; change in vivo at 0.1 mg/kg ([3]; 0.1 mg/kg i.v.): 51%
Cc1nc2cc(C3=NNC(=O)CC3C)ccc2n1Cc1ccccc1 (centres unmarked) [M, 1-Benzyl-2-methyl-5-(5-methyl-3-oxo-4,5-dihydro-2H-6-pyridazinyl)-benzimidazole] | -48 mgm Hg | > 110 min | 106% | -57 mgm Hg | Change of blood pressure, first value of the pair (before the slash) ([3]; 0.1 mg/kg i.v.): -37 mgm Hg; Change of blood pressure, second value of the pair (after the slash) ([3]; 0.1 mg/kg i.v.): -33 mgm Hg; Duration of action ([3]; 0.1 mg/kg i.v.): > 62 min; change in vivo at 0.1 mg/kg ([3]; 0.1 mg/kg i.v.): 123%
COc1ccc(-c2nc3cc(C4=NNC(=O)CC4C)ccc3[nH]2)c(OC)c1 (centres unmarked) [Compound E, 2-(2,4-Dimethoxy-phenyl)-5(6)-(5-methyl-3-oxo-4,5-dihydro-2H-6-pyridazinyl)-benzimidazole] | -33 mgm Hg | > 55 min | 89% | -28 mgm Hg | 
